How the values were obtained:
鸡蛔虫 = assay: Chicken roundworm removal test (Test 1); format: in vivo
巴西日园线虫 = assay: Anthelmintic efficacy against rat intestinal nematode (Test 3); format: in vivo; conditions: male Wistar rats, 2000 larvae s.c., 10 mg/kg 7 days after infection, adult worms in small intestine counted 10 days after dosing

Compound: CC(C)C[C@H]1C(=O)O[C@H](Cc2ccc(O)cc2)C(=O)N(C)[C@@H](CC(C)C)C(=O)O[C@H](C)C(=O)N(C)[C@@H](CC(C)C)C(=O)O[C@H](Cc2ccccc2)C(=O)N(C)[C@@H](CC(C)C)C(=O)O[C@H](C)C(=O)N1C [PF1022 E, 环—(—L—MeLeu—D—Lac—L—MeLeu—D—TYRA—L—MeLeu-D—Lac—L—Mekeu—D—PhLac)]
- 杀虫率 (鸡蛔虫; dose 0.5 mg/kg): 70%
- 存留虫收(average value±SD) (巴西日园线虫): 2175±134.4

Compound: CC(C)CC1C(=O)OC(C)C(=O)N(C)C(CC(C)C)C(=O)OC(C)C(=O)N(C)C(CC(C)C)C(=O)OC(C)C(=O)N(C)C(CC(C)C)C(=O)OC(C)C(=O)N1C (centres unmarked) [PF1022-002, 环—(L—meLeu—D—Lac—)4]
- 存留虫收(average value±SD) (巴西日园线虫): 1976.5±306.2

Compound: CC(C)C[C@H]1OC(=O)[C@H](CC(C)C)N(C)C(=O)[C@@H](C)OC(=O)[C@H](CC(C)C)N(C)C(=O)[C@@H](Cc2ccccc2)OC(=O)[C@H](CC(C)C)N(C)C(=O)[C@@H](C)OC(=O)[C@H](CC(C)C)N(C)C1=O [PF1022-003, 环—(—L—MeLeu—D—Lac—L—MeLeu—D—PhLac—L—Meleu—D—Lac—L—Meleu—D—LEUA)]
- 杀虫率 (鸡蛔虫; dose 10 mg/kg): 76%
- 存留虫收(average value±SD) (巴西日园线虫): 689±48.1

Compound: CC(C)CC1NC(=O)C(Cc2ccccc2)OC(=O)C(CC(C)C)N(C)C(=O)C(C)OC(=O)C(CC(C)C)NC(=O)C(Cc2ccccc2)OC(=O)C(CC(C)C)N(C)C(=O)C(C)OC1=O (centres unmarked) [PF1022-218, 环—(L—MeLeu—D—PhLac—L—Leu—D—Lac)2]
- 存留虫收(average value±SD) (巴西日园线虫): 2400±362.0

Compound: CC(C)C[C@@H]1NC(=O)[C@@H](C)OC(=O)[C@H](CC(C)C)N(C)C(=O)[C@@H](Cc2ccccc2)OC(=O)[C@H](CC(C)C)NC(=O)[C@@H](C)OC(=O)[C@H](CC(C)C)N(C)C(=O)[C@@H](Cc2ccccc2)OC1=O [PF1022-219, 环—(L—MeLeu—D—Lac—L—Leu—D—PhLac)2]
- 存留虫收(average value±SD) (巴西日园线虫): 2084.5±94.0

Compound: CC(C)CC1C(=O)OC(CC2CCCCC2)C(=O)N(C)C(CC(C)C)C(=O)OC(C)C(=O)N(C)C(CC(C)C)C(=O)OC(CC2CCCCC2)C(=O)N(C)C(CC(C)C)C(=O)OC(C)C(=O)N1C (centres unmarked) [PF1022-ADH, 十二氢—PF 1022]
- 杀虫率 (鸡蛔虫; dose 5 mg/kg): 30%

Compound: CC(C)CC1C(=O)OC(CC2CCCCC2)C(=O)N(C)C(CC(C)C)C(=O)OC(C)C(=O)N(C)C(CC(C)C)C(=O)OC(Cc2ccccc2)C(=O)N(C)C(CC(C)C)C(=O)OC(C)C(=O)N1C (centres unmarked) [PF1022-AHH, 六氢—PF1022]
- 杀虫率 (鸡蛔虫; dose 5 mg/kg): 62%

Compound: CC(C)C[C@H]1C(=O)O[C@H](Cc2ccccc2)C(=O)N(C)[C@@H](CC(C)C)C(=O)O[C@H](C)C(=O)N(C)[C@@H](CC(C)C)C(=O)O[C@H](Cc2ccccc2)C(=O)N(C)[C@@H](CC(C)C)C(=O)O[C@H](C)C(=O)N1C [PF1022]
- 杀虫率 (鸡蛔虫; dose 0.5 mg/kg): 50-70%
- 杀虫率 (鸡蛔虫; dose 1.0 mg/kg): 60-86%
- 存留虫收(average value±SD) (巴西日园线虫): 403±32.5

Compound: 环—(L—MeLeu—D—PhLac—L—MeLeu—D—Lac—L—MeLeu—D—TYRA(OBn)—L—MeLeu—D—Lac) [PF1022-022]
- 杀虫率 (鸡蛔虫; dose 5 mg/kg): 84%

Compound: 环—(L—MeLeu—D—VALA—L—MeLeu—D—Lac)2 [PF1022-209]
- 存留虫收(average value±SD) (巴西日园线虫): 827±388.9

From patent publication CN1119437A, “环缩酚酸肽pf1022衍生物” (Meiji Seika Kaisha Ltd, priority 1993, dated 1996)
